Assay results: PubChem BioAssay AID248 (DTP/NCI, 2004)
Inconclusive results and toxic doses are left out. Rule as the data show it: active = T/C of 150% or more; inactive = T/C below 125%.

System: L1210 leukemia ip in BDF1 mice, survival T/C
Assay: NCI In Vivo Anticancer Drug Screen. Data for tumor model L1210 Leukemia (intraperitoneal) in B6D2F1 (BDF1) mice
Conditions: endpoint: mean survival time, higher = longer survival
How it was run: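 Antitumor effect is assessed in tumor-bearing animals. Survival in the compound arm is compared with a vehicle-dosed control arm and expressed as their quotient.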

Measured: T/C

O=C(Nc1cccc(Br)c1)c1cc(Cl)cc(Cl)c1Br
inactive: dose: 87.5 mg/kg/injection, schedule: Q04DX003 (ip), vehicle: saline with Tween-80 105 % of control | dose: 175.0 mg/kg/injection, schedule: Q04DX003 (ip), vehicle: saline with Tween-80 97 % of control | dose: 350.0 mg/kg/injection, schedule: Q04DX003 (ip), vehicle: saline with Tween-80 97 % of control

OC(C(c1ccccc1)N1CCOCC1)C(O)(c1ccccc1)c1ccccc1 (configuration not stated)
inactive: dose: 100.0 mg/kg/injection, schedule: Q01DX001 (ip), vehicle: saline 106 % of control | dose: 200.0 mg/kg/injection, schedule: Q01DX001 (ip), vehicle: saline 94 % of control | dose: 400.0 mg/kg/injection, schedule: Q01DX001 (ip), vehicle: saline 97 % of control

OC1CCC2CCCC2C1 (configuration not stated)
inactive: dose: 100.0 mg/kg/injection, schedule: Q01DX009 (ip), vehicle: Klucel (hydroxypropylcellulose) (HPC) 97 % of control | dose: 100.0 mg/kg/injection, schedule: Q04DX003 (ip), vehicle: Klucel (hydroxypropylcellulose) (HPC) 102 % of control | dose: 200.0 mg/kg/injection, schedule: Q01DX009 (ip), vehicle: Klucel (hydroxypropylcellulose) (HPC) 97 % of control | dose: 200.0 mg/kg/injection, schedule: Q04DX003 (ip), vehicle: Klucel (hydroxypropylcellulose) (HPC) 98 % of control | dose: 400.0 mg/kg/injection, schedule: Q04DX003 (ip), vehicle: Klucel (hydroxypropylcellulose) (HPC) 99 % of control

CCC(C(O)c1cccs1)C(O)(C(F)(F)F)C(F)(F)F (configuration not stated)
inactive: dose: 100.0 mg/kg/injection, schedule: Q01DX009 (ip), vehicle: saline with Tween-80 95 % of control | dose: 100.0 mg/kg/injection, schedule: Q04DX003 (ip), vehicle: saline with Tween-80 95 % of control | dose: 200.0 mg/kg/injection, schedule: Q01DX009 (ip), vehicle: saline with Tween-80 116 % of control | dose: 200.0 mg/kg/injection, schedule: Q04DX003 (ip), vehicle: saline with Tween-80 95 % of control | dose: 400.0 mg/kg/injection, schedule: Q01DX009 (ip), vehicle: saline with Tween-80 97 % of control | dose: 400.0 mg/kg/injection, schedule: Q04DX003 (ip), vehicle: saline with Tween-80 93 % of control
